Laboratory results from patent US20110319461A1, “NOVEL SALTS, POLYMORPHS, AND SYNTHETIC PROCESSES REGARDING IMIDAZOLE DERIVATIVE” (Ore Pharmaceuticals Inc., priority 2010, published 2011).
Read-outs that look alike come from different tables or passages of the source. Blank lines part the entries; values can stand above or below the compound they belong to.

How the values were obtained:
ACE2 = ACE2 (Homo sapiens, UniProt Q9BYF1); conditions: cited from earlier work
Water solubility = format: physicochemical
[1] = test system: NSAID-induced gastric damage in rats; assay: NSAID-induced gastric damage; format: in vivo
[2] = Storage stability of the drug substance; format: physicochemical
[3] = test system: acute dextran sodium sulfate-induced colitis in mice; assay: Acute dextran sodium sulfate (DSS)-induced colitis; format: in vivo; conditions: for DSS-induced colon shortening: high dose Compound (I) and sulfasalazine
Text: 2-[1-(S)-carboxy-2(S)-[3-(3,5-dichloro-benzyl)-3H-imidazol-4-yl]-ethylamino]-4-methyl-pentanoic acid, herein also referred to as Compound (I), is described in U.S. Pat. No. 6,632,830, U.S. Pat. No. 7,045,532, and WO 00/066104, each herein incorporated by reference in their entirety. Additionally, Compound (I) is discussed in “Substrate-Based Design of the First Class of Angiotensin-Converting Enzyme-Related Carboxypeptidase (ACE2) Inhibitors”, Dales, N. A., et al., J. Amer. Chem. Soc., 2002, 124, 11852-11853, incorporated by reference. As reported by Byrnes et al., Effects of the ACE2 inhibitor GL1001 on acute dextran sodium sulfate-induced colitis in mice, Inflamm. […] Doses of Compound (I) ameliorated DSS-induced disease activity, including rectal prolapsed and intestinal bleeding. […] Compound (I) provides therapeutic potential for inflammatory bowel disease.
Exposure to DSS prior to vehicle treatment (vehicle+DSS group) produced a time-dependent decrease in body weight that recovered by day 15. This body weight loss and recovery was similar in animals having received repeated doses of Compound (I) (300 mg/kg).
Disease activity index (DAI), namely rectal prolapsed, stool consistency, and fecal occult blood) was assessed every other day throughout the experiment. By experimental day 7, significant DSS-induced disease began to emerge, and trends toward recovery were observed by day 11. Statistical analyses were conducted on data obtained on the days of peak severity: day 7 (presence of fecal blood and diarrhea) and day 9 (rectal prolapse). All DAI data were analyzed by one-way ANOVA. Compared to non-DSS controls, DSS treatment markedly elevated scores for fecal occult blood, stoll consistency, and rectal prolapsed. These effects were attenuated by Compound (I) (300 mg/kg).
On experimental day 15, colon was obtained from each animal and length was measured. […] No effects of 30 or 100 mg/kg on DSS-induced colon shrinkage were observed (P>0.05 for all). Total histopathology score (inflammation+glandular epithelial loss+mucosal erosion) for each treatment group is represented with a maximum obtainable score of 15. One-way ANOVA indicated significant DSS_induced damage (vs. non-DSS control) in each region studied, with the most damage occurring in the distal colon.

[4] = test system: upper gastrointestinal tract of the mouse; assay: Anti-inflammatory effects in the upper gastrointestinal tract; format: in vivo
CPDA = target: T1, CPDA (Bos taurus, UniProt P00730); conditions: per Dales et al.; read-out: IC50 against CPDA (selectivity); cited from earlier work
T1 sequence (P00730 111-419): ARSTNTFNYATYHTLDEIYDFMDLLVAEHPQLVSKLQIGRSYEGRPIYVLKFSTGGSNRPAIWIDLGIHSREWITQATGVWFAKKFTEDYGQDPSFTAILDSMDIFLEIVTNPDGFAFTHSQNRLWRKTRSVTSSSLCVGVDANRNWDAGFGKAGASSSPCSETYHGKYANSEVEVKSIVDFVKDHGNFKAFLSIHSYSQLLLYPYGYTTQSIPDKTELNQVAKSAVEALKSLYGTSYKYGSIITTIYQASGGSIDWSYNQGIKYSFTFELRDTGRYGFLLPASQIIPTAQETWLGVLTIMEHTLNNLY

[5] = test system: acute dextran sodium sulfate-induced colitis in mice; conditions: as reported by Byrnes et al., cited from earlier work
ACE = ACE (Homo sapiens, UniProt P12821); conditions: per Dales et al.; read-out: IC50 against ACE (selectivity); cited from earlier work
ACE, sequence (P12821 1-732 isoform P12821-3): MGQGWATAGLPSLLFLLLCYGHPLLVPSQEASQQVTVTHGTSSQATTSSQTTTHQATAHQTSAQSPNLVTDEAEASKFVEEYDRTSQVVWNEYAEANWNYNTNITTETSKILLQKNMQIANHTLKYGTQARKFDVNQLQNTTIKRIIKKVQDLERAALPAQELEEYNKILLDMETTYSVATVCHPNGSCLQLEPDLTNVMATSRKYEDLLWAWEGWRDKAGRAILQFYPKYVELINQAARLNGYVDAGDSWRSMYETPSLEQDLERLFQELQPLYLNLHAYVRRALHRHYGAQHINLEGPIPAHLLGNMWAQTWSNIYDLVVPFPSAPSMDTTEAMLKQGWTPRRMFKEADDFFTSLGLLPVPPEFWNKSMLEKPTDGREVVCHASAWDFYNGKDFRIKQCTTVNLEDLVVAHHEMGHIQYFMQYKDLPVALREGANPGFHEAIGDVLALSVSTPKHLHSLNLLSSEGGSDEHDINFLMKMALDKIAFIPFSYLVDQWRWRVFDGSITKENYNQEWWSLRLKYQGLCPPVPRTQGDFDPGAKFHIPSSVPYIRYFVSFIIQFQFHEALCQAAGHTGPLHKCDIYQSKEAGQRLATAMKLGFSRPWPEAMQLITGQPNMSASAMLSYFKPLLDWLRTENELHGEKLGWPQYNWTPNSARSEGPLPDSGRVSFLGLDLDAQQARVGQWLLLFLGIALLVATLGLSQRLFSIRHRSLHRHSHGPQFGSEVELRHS

[6] = profound effect in the distal segment

ACE2, sequence (Q9BYF1 18-805): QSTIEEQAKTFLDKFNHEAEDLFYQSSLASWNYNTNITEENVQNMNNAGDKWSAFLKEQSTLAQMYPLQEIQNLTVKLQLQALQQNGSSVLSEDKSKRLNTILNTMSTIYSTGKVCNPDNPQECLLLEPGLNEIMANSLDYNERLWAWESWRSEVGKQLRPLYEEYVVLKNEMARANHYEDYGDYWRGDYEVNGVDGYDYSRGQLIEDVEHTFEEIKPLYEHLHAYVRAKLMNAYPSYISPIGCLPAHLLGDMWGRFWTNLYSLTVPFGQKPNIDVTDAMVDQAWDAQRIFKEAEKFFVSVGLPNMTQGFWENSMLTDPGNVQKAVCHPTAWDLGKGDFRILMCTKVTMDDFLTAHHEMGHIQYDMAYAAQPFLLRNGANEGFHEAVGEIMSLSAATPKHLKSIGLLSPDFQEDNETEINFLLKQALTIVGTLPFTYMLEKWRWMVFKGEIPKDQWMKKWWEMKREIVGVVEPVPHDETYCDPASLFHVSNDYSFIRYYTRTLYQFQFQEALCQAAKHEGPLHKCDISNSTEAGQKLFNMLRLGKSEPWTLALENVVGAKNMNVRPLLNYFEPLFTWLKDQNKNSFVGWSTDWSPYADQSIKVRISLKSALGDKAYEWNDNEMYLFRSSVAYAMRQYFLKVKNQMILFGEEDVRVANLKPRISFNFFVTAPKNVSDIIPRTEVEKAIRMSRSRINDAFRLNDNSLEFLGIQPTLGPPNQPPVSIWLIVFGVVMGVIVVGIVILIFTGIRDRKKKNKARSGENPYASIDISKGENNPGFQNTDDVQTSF

water solubility (Water solubility): excellent
water solubility (Water solubility; listed as dicarboxylic acid): limited
long-term stability / degradation ([2]; ambient temperature and humidity, 7 years): no apparent degradation
SMILES: CC(C)C[C@H](N[C@@H](Cc1cncn1Cc1cc(Cl)cc(Cl)c1)C(=O)O)C(=O)O [Compound (I), 2-[1-(S)-carboxy-2(S)-[3-(3,5-dichloro-benzyl)-3H-imidazol-4-yl]-ethylamino]-4-methylpentanoic acid]
ACE2 inhibitor potency and selectivity (ACE2): potent and selective
protection against NSAID-induced gastric damage [1]: protects against NSAID-induced gastric damage
body weight recovery ([3]; 30 mg/kg, by day 15): compete recovery by day 15
body weight loss and recovery compared with vehicle+DSS group ([3]; 300 mg/kg repeated b.i.d., days 5-15): similar
disease activity index (fecal occult blood, stool consistency, rectal prolapse) elevated by DSS ([3]; 300 mg/kg, day 7 and day 9): attenuated
DSS-induced damage in the distal colon (total histopathology score) ([3]; 300 mg/kg, day 15): significantly attenuated
body weight reduction ([3]; 30 and 100 mg/kg, maximum effects on day 9): exhibited the largest weight reduction
effect on any DAI parameter ([3]; 30 or 100 mg/kg, all P>0.05): no effects were observed
DSS-induced colon shrinkage ([3]; day 15, 30 or 100 mg/kg, P>0.05): No effects
DSS-induced colon shortening ([3]; day 15): reversed
anti-inflammatory effects in the upper gastrointestinal tract [4]: exhibits anti-inflammatory effects
IC50 (CPDA): > 50 µM
DSS-induced disease activity, including rectal prolapse and intestinal bleeding [5]: ameliorated
colon pathology [5, 6]: markedly attenuated
myeloperoxidase activity [5, 6]: markedly attenuated
IC50 (ACE): > 50 µM

SMILES: CC(C)C[C@@H](N[C@H](Cc1cncn1Cc1cc(Cl)cc(Cl)c1)C(=O)O)C(=O)O [R,R isomer, 2-[1-(R)-carboxy-2(R)-[3-(3,5-dichloro-benzyl)-3H-imidazol-4-yl]-ethylamino]-4-methylpentanoic acid, reference compound]
IC50 (ACE2; stereoisomers of Compound (I), per Dales et al., read-out: activity of the isomer (ACE2 inhibition)): > 50 µM

SMILES: CC(C)C[C@H](N[C@@H](Cc1cncn1Cc1cc(Cl)cc(Cl)c1)C(=O)[O-])C(=O)[O-].[Na+].[Na+] [disodium salt anhydrate]
stability ([2]; ambient temperatures): unstable, thermally sensitive, and subject to oxidation at ambient temperatures

SMILES: O=C(O)c1cc(/N=N/c2ccc(S(=O)(=O)Nc3ccccn3)cc2)ccc1O [sulfasalazine, reference compound]
rectal prolapse and bleeding (DAI) ([3]; 150 mg/kg, compared with Compound (I) 300 mg/kg): similarly efficacious
DSS-induced colon shortening ([3]; day 15): reversed
body weight recovery compared with vehicle+DSS and Compound (I) 300 mg/kg groups ([3]; sulfasalazine-treated animals, day 15): did not recover to the same extent by day 15
